Measurements reported in patent US10143666B2, “Small molecule inhibitors targeting CAG-repeat RNA toxicity in polyglutamine diseases” (The Chinese University of Hong Kong, priority 2015, dated 2018).
Several values for one entry are separate records, joined by “and”; a condition that tells them apart may be missing. Equal entries are not always repeated.

Experiments:
[1] = system: primary rat cortical neurons; experiment: Cytotoxicity test on primary rat cortical neurons; type: cell-based
From the text: To address the specificity of DB213 on expanded CAG-repeat RNA toxicity in vitro, another small molecule compound, C4G2, labeled as ligand 3 in the study^17, was employed.

trMJDCAA/G78 cells = experiment: LDH cytotoxicity assay, trMJDCAA/G78 cell model; type: cell-based, human; settings: only trMJDQ78 protein toxicity
Method: It was next investigated whether DB213 could mitigate expanded CAG-repeat RNA-mediated toxicity in SK-N-MC human neuronal cell. […] Taken together, DB213 could suppress the expanded CAG RNA-mediated but not polyQ protein-mediate toxicity in human neuronal cell.
SK-N-MC human neuronal cells were seeded on a 24-well plate and lactate dehydrogenase enzyme activity in the cell culture medium was measured 72 hours post-transfection and drugs treatment using the Cytotox 96 non-radioactive cytotoxicity assay (Promega).

R6/2 Huntington's mice [2] = experiment: Tolerability / mortality in R6/2 Huntington's mice after i.n. or i.v. dosing; settings: for Mice lost in total: all dose groups; for Highest tolerated dose: R6/2 mice
Method: The objective of this study was to investigate the tolerability of i.n. or i.v. administrated Compound-5 (DB213) treatment on 1) neurological index (NI) scores, 2) body weight, 3) body temperature and 4) activity in open field test in R6/2 Huntington's mice.
i.n.: Group 1: 3 female and 3 male R6/2 mice treated with i.n. vehicle starting at 6 weeks of age and continuing for 7 days; Group 2: 3 female and 3 male R6/2 mice treated i.n. daily with Compound-5 at 50 mg/kg starting at 6 weeks of age and continuing for 7 days; Group 3: 3 female and 3 male R6/2 mice treated i.n. daily with Compound-5 at 100 mg/kg starting at 6 weeks of age and continuing for 7 days; Group 4: 3 female and 3 male R6/2 mice treated i.n. daily with Compound-5 at 200 mg/kg starting at 6 weeks of age and continuing for 7 days; Group 5: 3 female and 3 male R6/2 mice treated i.n. daily with Compound-5 at 300 mg/kg starting at 6 weeks of age and continuing for 7 days.
Compound-5 or vehicle was administered i.n. daily or i.v. twice-a-week starting at 6 weeks of age for 7 days.
i.v. administration: mice received 2 weekly i.v. injections into the tail vein. Mice were weighed on each treatment day and the dose adjusted accordingly to 1 ml/kg dose volume. For example, a mouse with a 30 g body weight received an i.v. injection of 30 μl. The whole i.v. injection process took 5-8 min per mouse.
i.n. administration: using a three fingered scruff, each mouse was restrained twice and held with neck parallel to the table while the compound was administered. The volume was 0.56 ml/kg. For example, a mouse with a 30 g body weight received in total 16.8 μl. During each restraint, 8.4 μl was administered to the left nostril as two 4.2 μl drops, followed by a 15 sec hold, and 8.4 μl was administered to the right nostril as two 4.2 μl drops, followed by a 15 sec hold. Notes were taken on the success of delivery and any lost volume greater than 2 μl were re-administered.
Animals were monitored twice-a-day by laboratory personnel (8 am and […]). […] Definitions of acceptable endpoints included: no spontaneous movements and inability to drink or eat in 24-h observation period, massive bleeding, spontaneous inflammation, missing anatomy, swelling or tumors larger than 20 mm, and inability to right itself in 30 sec period.

CUG-repeat RNA = settings: reported previously; cited from earlier work
R6/2 Huntington's mice [3] = experiment: Open field test in R6/2 mice; type: in vivo
Method: The body weights were measured daily.
Open field test was performed at baseline, and on day 7. The mice were brought to the experimental room for at least 1 h acclimation to the experimental room conditions prior to testing. Activity chambers (Med Associates Inc, St Albans, Vt.; 27×27×20.3 cm) were equipped with IR beams. Mice were placed in the center of the chamber and their behavior was recorded for 30 min in 5-minute bins. Quantitative analysis was performed on the following five dependent measures: total locomotion, locomotion in the center of the open field, rearing rate in the center, total rearing frequency and velocity. Animals were tested at low-stress conditions where the light was lowered to approximately 10-30 lux of red light.

Body weight in R6/2 mice = settings: for Body weight (individual mouse): in g (unit assumed)
[4] = i.v. 200 mg/kg group (so in the source)
[5] = i.v. 300 mg/kg group (so in the source)

Structure (SMILES): CN(C)CCCNC(=N)c1ccc(C(=N)NCCCN(C)C)cc1.Cl.Cl.Cl.Cl [DB213]
- No observed cytotoxicity up to ([1]; cellular toxicity): up to 12.8 μM
- Concentration up to which viability of wild-type primary neurons was not compromised ([1]; primary rat cortical neurons): up to 12,800 nM
- Cell death level (LDH assay) (trMJDCAA/G78 cells): did not alter the cell death level
- Mortality (R6/2 Huntington's mice [2]; both intranasal and intravenous treatment): increase mortality in dose-dependent manner
- Mice lost (R6/2 Huntington's mice [2]; i.n. daily 50 mg/kg, 7 days): 1 mouse
- Mice lost, share of group (R6/2 Huntington's mice [2]; i.n. daily 50 mg/kg, 7 days): 16.7%
- Mice lost (R6/2 Huntington's mice [2]; i.n. daily 100 mg/kg, 7 days): 2 mice
- Mice lost, share of group (R6/2 Huntington's mice [2]; i.n. daily 100 mg/kg, 7 days): 33.3%
- Mice lost (R6/2 Huntington's mice [2]; i.n. daily 200 mg/kg, 7 days): 4 mice
- Mice lost, share of group (R6/2 Huntington's mice [2]; i.n. daily 200 mg/kg, 7 days): 66.7%
- Mice lost (R6/2 Huntington's mice [2]; i.n. daily 300 mg/kg, 7 days): 3 mice
- Mice lost, share of group (R6/2 Huntington's mice [2]; i.n. daily 300 mg/kg, 7 days): 50%
- Mice lost in total (R6/2 Huntington's mice [2]; i.n. daily, 7 days): 10 mice
- Mice lost (R6/2 Huntington's mice [2]; [4]): 2 mice
- Mice lost, share of group (R6/2 Huntington's mice [2]; [4]): 100%
- Mice lost (R6/2 Huntington's mice [2]; [5]): 2 mice
- Mice lost, share of group (R6/2 Huntington's mice [2]; [5]): 100%
- Mice lost (R6/2 Huntington's mice [2]; i.v. twice-a-week 25 mg/kg): 1 mouse
- Mice lost, share of group (R6/2 Huntington's mice [2]; i.v. twice-a-week 25 mg/kg): 12.5%
- Mice lost (R6/2 Huntington's mice [2]; i.v. twice-a-week 50 mg/kg): 3 mice
- Mice lost, share of group (R6/2 Huntington's mice [2]; i.v. twice-a-week 50 mg/kg): 75%
- Mice lost in total (R6/2 Huntington's mice [2]; i.v. twice-a-week): 8 mice
- Highest tolerated dose (R6/2 Huntington's mice [2]; intranasally): 50 to 100 mg/kg
- Highest tolerated dose (R6/2 Huntington's mice [2]; intravenously): 12.5 to 25 mg/kg
- Binding to CUG repeats / CUG-repeat RNA (CUG-repeat RNA): did not bind to CUG repeats
- Movement activity in open field test (R6/2 Huntington's mice [3]; day 7 post-dosing): no effect on movement activity
- Open field distance, rearings, distance in center, rearings in center or velocity, differences between treatment groups (R6/2 Huntington's mice [3]; i.n. dosing, day 7): no differences
- Open field distance, rearings, distance in center, rearings in center or velocity, differences between treatment groups (R6/2 Huntington's mice [3]; i.v. dosing, baseline or day 7): no differences
- Body weight (individual mouse) (Body weight in R6/2 mice; i.n. daily 50 mg/kg, Day 1, listed as Compound-5, 50 mg/kg): 20.9 and 20 and 23.9
- Body weight (group Mean) (Body weight in R6/2 mice; i.n. daily 50 mg/kg, Day 2): 21.1 g
- Body weight (individual mouse) (Body weight in R6/2 mice; i.n. daily 50 mg/kg, Day 2, listed as Compound-5, 50 mg/kg): 20.6 and 17.9 and 17.5 and 25.3
- Body weight (individual mouse) (Body weight in R6/2 mice; i.n. daily 50 mg/kg, Day 3, listed as Compound-5, 50 mg/kg): 21.1 and 24 and 26.3
- Body weight (group Mean) (Body weight in R6/2 mice; i.n. daily 50 mg/kg, Day 4): 22 g
- Body weight (individual mouse) (Body weight in R6/2 mice; i.n. daily 50 mg/kg, Day 4, listed as Compound-5, 50 mg/kg): 20.1 and 26.3
- Body weight (individual mouse) (Body weight in R6/2 mice; i.n. daily 50 mg/kg, Day 5, listed as Compound-5, 50 mg/kg): 19.9 and 17.4 and 23.6 and 20.7 and 25.6
- Body weight (group Mean) (Body weight in R6/2 mice; i.n. daily 50 mg/kg, Day 6): 21.5 g
- Body weight (individual mouse) (Body weight in R6/2 mice; i.n. daily 50 mg/kg, Day 6, listed as Compound-5, 50 mg/kg): 19.9 and 17.6 and 21.5 and 25
- Body weight (individual mouse) (Body weight in R6/2 mice; i.n. daily 50 mg/kg, Day 7, listed as Compound-5, 50 mg/kg): 20.4 and 17.9 and 23.5 and 21.5 and 26.3
- Body weight (individual mouse) (Body weight in R6/2 mice; i.n. daily 100 mg/kg, Day 1, listed as Compound-5, 100 mg/kg): 19 and 20.6 and 23.5 and 23.2 and 23.7
- Body weight (group Mean) (Body weight in R6/2 mice; i.n. daily 100 mg/kg, Day 2): 21 g
